We go through ten compounds from PubChem BioAssay (NCI).

Common to all, as to assay: NCI anticancer screen, dose series, 48 h
The subject of assay [1] is A498 renal.
In assay [2] the test system is A549 NSCLC.
The subject of assay [3] is DU-145 prostate.
Assay [4] concerns EKVX NSCLC.
Assay [5] concerns HCC-2998 colon.
Assay [6] concerns HOP-62 NSCLC.
Assay [7] has as its system M14 melanoma.
The subject of assay [8] is MCF7 breast.
Assay [9] has as its system MDA-MB-435.
Assay [10] deals with NCI-H226 lung.
Assay [11] has as its system OVCAR-5 ovarian.
The subject of assay [12] is RXF 393 renal.
Assay [13] relates to SF-539 CNS.
Assay [14] relates to SK-MEL-28 melanoma.
For assay [15], the system named is SK-MEL-5 melanoma.
Assay [16] relates to CCRF-CEM leukemia.

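Step 1: Grow cells in 96-well plates. Step 2: Expose to compound for 48 hours at 5 concentrations. Step 3: Interpolate endpoints linearly; if unreached, use highest concentration. TGI marks complete inhibition of growth.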 Bounds are passed on as bounds.

In the case of `CCN(CC)CCCC(C)NC(=O)c1cc(-c2nccn2C)nc2ccc(C)cc12` (configuration not stated), the TGI in [1], in assay [2], in [3], in [4], in [5] and in assay [6] was above 100 µM each time. In addition, the TGI in [7], in assay [8], in assay [9], in [10], in assay [11] and in [12] was above 100 µM each time. Moreover, the TGI in assay [13], in [14] and in assay [15] was above 100 µM each time.

In the case of `COc1ccc(OC)c(C2CCCc3c2cnc2nc(N)nc(N)c32)c1` (configuration not stated), the TGI in [1], in assay [2], in [16], in assay [3], in assay [4] and in assay [6] was above 100 µM throughout. In addition, the TGI was above 100 µM in assay [7]; 0.017 µM in assay [8]; above 100 µM in assay [9]; above 100 µM in [10]; above 100 µM in [13]; above 100 µM in assay [14]. The TGI in [15] is above 100 µM.

`CC(C)(C)c1ccc(-c2nc3ccccc3c(=O)o2)cc1`: the TGI is above 100 µM in assay [1]; 86.6 µM in assay [2]; 44.2 µM in [16]; above 100 µM in [3]; above 100 µM in assay [4]; 85.5 µM in assay [5]. The TGI in assay [6] was above 100 µM; in [7], above 100 µM; in [8], 62.2 µM; in [9], above 100 µM; in [11] it was above 100 µM; in assay [12], above 100 µM. The TGI is above 100 µM in assay [13], above 100 µM in assay [14] and 38.2 µM in assay [15].

On to `CCOC(=O)C1=C(OS(=O)(=O)C(F)(F)F)CCCC1`, for which the TGI in [1], in assay [2], in [16], in assay [3], in assay [4] and in assay [5] was above 100 µM throughout. Besides, the TGI in assay [6], in assay [7], in [8], in assay [9], in [10] and in assay [11] was above 100 µM in each case. For the same compound, the TGI in assay [12], in assay [13], in [14] and in assay [15] was above 100 µM each time.

Take `COC(=O)c1cc(C)n2c1CS[C@@H]2c1ccccc1`: the TGI in assay [1] was 88 µM; in assay [2], above 100 µM; in [16], above 100 µM; in assay [3], above 100 µM; in [4] it was 93.2 µM; in [6], above 100 µM. Besides, the TGI was 73.4 µM in assay [7]; above 100 µM in assay [8]; 79 µM in [9]; 89.1 µM in assay [10]; above 100 µM in [11]; 55.5 µM in [12]. Also, the TGI in assay [14] is above 100 µM; in assay [15], 44.3 µM.

Turning to `COc1cc(C2SCC(=O)N2c2ccc(-c3ccc(-n4c(-c5ccccc5)nc5ccccc5c4=O)cc3)cc2)ccc1O` (configuration not stated), the TGI in [1], in [2], in assay [16], in assay [3], in assay [4] and in assay [5] was above 100 µM each time. The TGI in assay [6], in [7], in [8], in assay [9], in assay [10] and in assay [11] was above 100 µM each time. For the same compound, the TGI in assay [13], in assay [14] and in assay [15] was above 100 µM each time.

As for `COc1ccc(C(=O)/C=C2\c3ccccc3C(=O)N2C)cc1`, the TGI in [1], in [2], in assay [16], in assay [3], in [4] and in assay [6] was above 100 µM throughout. Further, the TGI in assay [7] is above 100 µM; in assay [8] it was above 100 µM; in [9] it was above 100 µM; in assay [11] it was above 100 µM; in assay [12], 82.8 µM; in assay [13] it was above 100 µM. In addition, the TGI in assay [14] and in [15] was above 100 µM each time.

Regarding `CN(C)C(=S)N/N=C\C(=N/NC(=S)N(C)C)c1ccccc1`, the TGI in assay [1] was 49.1 µM; in [2], above 100 µM; in assay [3] it was above 22.7 µM; in assay [4], above 100 µM; in [5], above 100 µM; in assay [6], above 100 µM. The TGI is above 100 µM in [7]; above 38.8 µM in assay [8]; above 100 µM in [9]; above 30.6 µM in assay [10]; above 100 µM in [11]; above 27.8 µM in [12]. The TGI in assay [13], in assay [14] and in assay [15] was above 100 µM throughout.

Consider `CN(C)CCCc1cccnc1`, for which the TGI in [1], in assay [2], in assay [16], in [3], in assay [4] and in assay [5] was above 100 µM in each case. Further, the TGI in [6], in assay [7], in [8], in [9], in assay [10] and in assay [11] was above 100 µM each time. Besides, the TGI in assay [12], in assay [14] and in assay [15] was above 100 µM in each case.

On to `CCCCOP(=O)(OCCCC)/C(C#N)=C/c1ccc(C)o1`, for which the TGI in [1], in [2], in assay [3], in [4], in [5] and in assay [6] was above 100 µM each time. Besides, the TGI is 78.5 µM in [7]; above 100 µM in [8]; 95.9 µM in [9]; 78.8 µM in [10]; above 100 µM in assay [11]; 86.1 µM in [12]. The TGI in [13] was above 100 µM; in [14], above 100 µM; in [15], 76.1 µM.
